Source: patent US20160137639A1, “TRIAZOLE-ISOXAZOLE COMPOUND AND MEDICAL USE THEREOF” (JAPAN TOBACCO INC., priority 2012, published 2016)
Like-named read-outs stand apart in the source and are kept apart here.

Key:
human RORγ = target: T1, human RORγ (Homo sapiens, UniProt P51449); assay: Luciferase reporter gene assay of inhibitory effect against RORγ transcriptional activity (GAL4-hRORγ plasmid in CHO cells); type: cell-based
T1 construct: human, NM_005060.3 and from Ser253 to Lys518; expressed in transfected cells; host or cells: CHO cells (transient co-transfection with pG5-Luc reporter)
T1 sequence (P51449 253-518): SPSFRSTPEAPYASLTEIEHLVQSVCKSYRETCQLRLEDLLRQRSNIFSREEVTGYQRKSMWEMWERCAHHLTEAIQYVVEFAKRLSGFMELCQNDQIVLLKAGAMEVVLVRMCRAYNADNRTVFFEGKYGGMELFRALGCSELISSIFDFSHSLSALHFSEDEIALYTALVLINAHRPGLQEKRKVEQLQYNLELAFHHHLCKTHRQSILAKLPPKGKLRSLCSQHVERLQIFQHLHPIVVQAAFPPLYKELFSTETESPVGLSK

mouse RORγ = target: T2, mouse RORγ (Mus musculus, UniProt P51450); assay: Luciferase reporter gene assay of inhibitory effect against RORγ transcriptional activity (GAL4-mRORγ plasmid in CHO cells); type: cell-based
T2 construct: mouse, NM_011281.2 and from Ile251 to Lys516; expressed in transfected cells; host or cells: CHO cells (transient co-transfection with pG5-Luc reporter)
T2 sequence (P51450 251-516): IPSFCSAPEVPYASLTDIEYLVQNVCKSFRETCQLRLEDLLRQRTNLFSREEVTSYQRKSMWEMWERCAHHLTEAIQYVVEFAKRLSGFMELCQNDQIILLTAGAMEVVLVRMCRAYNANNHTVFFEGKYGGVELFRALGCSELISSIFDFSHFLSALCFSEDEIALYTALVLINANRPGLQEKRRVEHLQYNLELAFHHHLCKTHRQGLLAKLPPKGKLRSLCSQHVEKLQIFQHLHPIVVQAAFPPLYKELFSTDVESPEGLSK
Outline: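 Readout is intracellular luciferase after 2-day compound exposure (8 concentrations, 0.1% DMSO) in CHO cells expressing GAL4 fused to mouse RORγ LBD residues Ile251–Lys516 plus pG5-Luc reporter. EC50 fitted from %-of-control; points showing resazurin-detected cytotoxicity dropped.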

| SMILES | EC50 (human RORγ; read-out: LUC EC50 (μM) hRORg) [µM] | EC50 (mouse RORγ; read-out: LUC EC50 (μM) mRORg) [µM] | also measured |
| --- | --- | --- | --- |
| Cc1ccc(NC(=O)C[C@H](CCC(=O)NS(C)(=O)=O)c2noc([C@H]3C[C@@H](CC(C)C)C3)c2C2CC2)c(C)c1 [Example F-636] |  |  | EC50 (human RORγ; read-out: LUC EC50 hRORg): < 3 µM; EC50 (mouse RORγ; read-out: LUC EC50 mRORg): < 3 µM |
| COc1ccc(C)c(NC(=O)CCc2nnc(CCC(C)C)n2C2CC2)c1 [Example F-92] | > 3 | > 3 |  |
| Cc1ccc(NC(=O)C[C@H](CCC(=O)O)c2cc([C@H]3C[C@@H](CC(C)(C)C)C3)on2)c(Cl)c1 [Example F-676] |  |  | EC50 (human RORγ; read-out: LUC EC50 hRORg): < 3 µM; EC50 (mouse RORγ; read-out: LUC EC50 mRORg): < 3 µM |
| CC(C)Cn1c(CCC(=O)Nc2cccc3ccccc23)nnc1C1Cc2ccccc2C1 [Example F-11] |  |  | EC50 (human RORγ; LUC EC50 (μM) hRORg): > 3 µM; EC50 (mouse RORγ; LUC EC50 (μM) mRORg): > 3 µM |
| COc1cc(NC(=O)C[C@H](CCO)c2nnc([C@H]3C[C@@H](CC(C)C)C3)n2C2CC2)ccc1C [Example F-526] |  |  | EC50 (human RORγ; read-out: LUC EC50 hRORg): < 3 µM; EC50 (mouse RORγ; read-out: LUC EC50 mRORg): < 3 µM |
| Cc1ccc(NC(=O)[C@H]2C[C@@H](O)C[C@@H]2c2nnc([C@H]3C[C@@H](CC(C)C)C3)n2C2CC2)c(C)c1 [Example F-470] | < 3 | < 3 |  |
| Cc1ccc(NC(=O)[C@H]2CN(CC(=O)N(C)C)C[C@@H]2c2nnc([C@H]3C[C@@H](CC(C)(C)C)C3)n2C2CC2)c(C)c1 [Example F-652] |  |  | EC50 (human RORγ; read-out: LUC EC50 hRORg): < 3 µM; EC50 (mouse RORγ; read-out: LUC EC50 mRORg): < 3 µM |
| CNC(=O)[C@H]1CC[C@H](CCc2nnc(CCC(=O)Nc3cccc(Cl)c3C)n2C2CC2)CC1 [Example F-255] | > 3 | > 3 |  |
| C=CCC(CC(=O)Nc1ccc(C)cc1C)c1nnc(C(F)(F)CCC(C)(C)C)n1C1CC1 (racemic) [Example F-376] | < 3 | < 3 |  |
| CC(=O)N1C[C@H](C(=O)Nc2ccc(Cl)cc2F)[C@@H](c2nnc([C@H]3C[C@@H](CC(C)C)C3)n2C2CC2)C1 [Example F-604] |  |  | EC50 (human RORγ; read-out: LUC EC50 hRORg): < 3 µM; EC50 (mouse RORγ; read-out: LUC EC50 mRORg): < 3 µM |
| Cc1cccc(C)c1NC(=O)CCc1nnc(CCC(C)C)n1C1CC1 [Example F-70] | > 3 | > 3 |  |
| CCn1c(CCCC(C)(C)C)nnc1[C@H]1CN(C(C)=O)C[C@@H]1C(=O)Nc1ccc(C)cc1C (racemic) [Example F-351] | < 3 | < 3 |  |
| CCn1c(CCC(=O)Nc2cccc(Cl)c2C)nnc1CCC1CCCC1 [Example F-54] | < 3 | < 3 |  |
| CCn1c(CCC(=O)Nc2ccc(Cl)cc2Cl)nnc1C1Cc2ccccc2C1 [Example F-31] | > 3 | > 3 |  |
| Cc1ccc(NC(=O)C[C@H](CCC(=O)O)c2noc(-c3cc(CCC(C)C)on3)c2C2CC2)c(F)c1 [Example E-09] | < 3 | < 3 |  |
| O=C(O)CC[C@@H](CC(=O)Nc1ccc(Cl)cc1Cl)c1noc(-c2cc(C3CCCC3)on2)c1C1CC1 [Example E-70] | < 3 | < 3 |  |
| Cc1ccc(NC(=O)C[C@H](CCO)c2noc([C@H]3C[C@@H](CC(C)C)C3)c2C2CC2)c(C)c1 [Example F-578] |  |  | EC50 (human RORγ; read-out: LUC EC50 hRORg): < 3 µM; EC50 (mouse RORγ; read-out: LUC EC50 mRORg): < 3 µM |
| Cc1ccc(NC(=O)C[C@H](CCC(=O)O)c2noc(-c3nnc(CC(C)C)s3)c2C2CC2)c(Cl)c1 [Example E-14] | < 3 | < 3 |  |
| CC(=O)N1CC[C@H](c2nnc(CCCC(C)(C)C)n2C2CC2)[C@@H](C(=O)Nc2ccc(C)cc2C)C1 (racemic) [Example F-435] | < 3 | < 3 |  |
| Cc1cccc(CNC(=O)CCc2nnc(CCC(C)C)n2C2CC2)c1 [Example F-60] | > 3 | > 3 |  |
| CCn1c(CCC(=O)Nc2ccccc2)nnc1C1Cc2ccccc2C1 [Example F-23] | > 3 | > 3 |  |

| SMILES | EC50 (human RORγ; read-out: LUC EC50 (μM) hRORg) [µM] | EC50 (mouse RORγ; read-out: LUC EC50 (μM) mRORg) [µM] | also measured |
| --- | --- | --- | --- |
| CC(C)CCc1nnc(CCC(=O)Nc2cnc3ccccn23)n1C1CC1 [Example F-134] | > 3 | > 3 |  |
| CC(C)C(F)(F)c1cc(-c2onc([C@@H](CCC(=O)O)CC(=O)Nc3ccc(F)cc3Cl)c2C2CC2)no1 [Example E-61] | < 3 | < 3 |  |
| Cc1ccc(NC(=O)[C@H]2CC(N(C)C(C)C)C[C@@H]2c2nnc([C@H]3C[C@@H](CC(C)C)C3)n2C2CC2)c(C)c1 (single isomer, unassigned) [Example F-539] |  |  | EC50 (human RORγ; read-out: LUC EC50 hRORg): > 3 µM; EC50 (mouse RORγ; read-out: LUC EC50 mRORg): < 3 µM |
| Cc1ccc(NC(=O)[C@H]2CN(C(=O)CN(C)C)C[C@@H]2c2nnc([C@H]3C[C@@H](CC(C)C)C3)n2C2CC2)c(C)c1 [Example F-657] |  |  | EC50 (human RORγ; read-out: LUC EC50 hRORg): > 3 µM; EC50 (mouse RORγ; read-out: LUC EC50 mRORg): < 3 µM |
| CCn1c(CCC(=O)NCc2cccc(C)c2)nnc1CCC1CCCCC1 [Example F-42] | > 3 | > 3 |  |
| Cc1ccc(NC(=O)C[C@@H](CCO)c2nnc(CCC3CCCCC3)n2C2CC2)c(C)c1 [Example F-384] | > 3 | > 3 |  |
| Cc1ccc(NCc2nnc(CCC(=O)Nc3cccc(Cl)c3C)n2C2CC2)cc1 [Example F-180] | > 3 | < 3 |  |
| Cc1ccc(NC(=O)C[C@H](CCC(=O)O)n2nnc([C@H]3C[C@@H](CC(C)(C)C)C3)c2C2CC2)c(Cl)c1 [Example F-682, (S)-5-(2-chloro-4-methyl-phenylcarbamoyl)-4-{5-cyclopropyl-4-[3-(2,2-dimethyl-propyl)-cyclobutyl]-[1,2,3]triazol-1-yl}pentanoic acid] |  |  | EC50 (human RORγ; read-out: LUC EC50 hRORg): < 3 µM; EC50 (mouse RORγ; read-out: LUC EC50 mRORg): < 3 µM |
| CCCOc1ccc(-c2nnc(CCC(=O)Nc3ccc(C)cc3C)n2C2CC2)cc1 [Example F-463] | > 3 | < 3 |  |
| CC(F)(F)c1c([C@@H](CCC(=O)O)CC(=O)Nc2ccc(Cl)cc2F)noc1-c1cc(C(F)(F)C(C)(C)C)on1 [Example E-66] | < 3 | < 3 |  |
| Cc1ccc(NC(=O)C[C@@H](CCO)c2nnc(CCCC(C)(C)C)n2CC(F)(F)F)c(C)c1 [Example F-379] | > 3 | < 3 |  |
| CC(=O)N1CC([C@@H](CC(=O)Nc2ccc(C)cc2C)c2nnc([C@H]3C[C@@H](CC(C)C)C3)n2C2CC2)C1 [Example F-466] | < 3 | < 3 |  |
| Cc1ccc(NC(=O)CC(Cc2nc(=O)on2C)c2nnc([C@H]3C[C@@H](CC(C)C)C3)n2C2CC2)c(C)c1 (mixture of isomers) [Example F-485] | < 3 | < 3 |  |
| CC(=O)N1C[C@H](C(=O)Nc2ccc(C)cc2C)[C@@H](c2nnc(CCCC(C)(C)C)n2CC(F)(F)F)C1 (racemic) [Example F-356] | < 3 | < 3 |  |
| CCn1c(CCC(=O)Nc2cccc(Cl)c2Cl)nnc1C1Cc2ccccc2C1 [Example F-30] | > 3 | < 3 |  |
| Cc1ccc(NC(=O)C[C@H](CN2CC(=O)NC2=O)c2nnc([C@H]3C[C@@H](CC(C)C)C3)n2C2CC2)c(C)c1 [Example F-479] | < 3 | < 3 |  |
| Cc1cc(Cl)ccc1NC(=O)C[C@H](CCO)c1nnc(-c2cc(CCC(C)C)on2)n1C1CC1 [Example F-616] |  |  | EC50 (human RORγ; read-out: LUC EC50 hRORg): < 3 µM; EC50 (mouse RORγ; read-out: LUC EC50 mRORg): < 3 µM |
| Cc1ccc(NC(=O)CC(CCO)c2nnc(CCC3CCCCC3)n2C2CC2)c(C)c1 (racemic) [Example F-248] | < 3 | < 3 |  |
| COc1cccc(CC(CC(=O)Nc2ccc(C)cc2C)c2nnc([C@H]3C[C@@H](CC(C)C)C3)n2C2CC2)n1 (mixture of isomers) [Example F-504] |  |  | EC50 (human RORγ; read-out: LUC EC50 hRORg): < 3 µM; EC50 (mouse RORγ; read-out: LUC EC50 mRORg): < 3 µM |
| CC(=O)N1C[C@@H](C(=O)Nc2ccc(C)cc2C)[C@H](c2nnc(CCCC(C)C)n2C2CC2)C1 [Example F-316] | > 3 | > 3 |  |
| Cc1ccc(NC(=O)C[C@H](C[C@H](C)O)c2nnc([C@H]3C[C@@H](CC(C)C)C3)n2C2CC2)c(C)c1 [Example F-574] |  |  | EC50 (human RORγ; read-out: LUC EC50 hRORg): < 3 µM; EC50 (mouse RORγ; read-out: LUC EC50 mRORg): < 3 µM |
